Read-outs that look alike come from different tables or passages of the source. No end group written: not given here. *: point of attachment. Biotin = O=C1N[C@H]2[C@H](CS[C@H]2CCCCC(=O)*)N1; Ttds = NCCCOCCOCCOCCCNC(=O)CCC(=O)*
Experiments:
human EGFR2 = target: T1, human EGFR2 (Homo sapiens, UniProt P04626); experiment: EGF-induced ERK1/2 phosphorylation in HeLa cells (ELISA); assay type: cell-based; details: EGF 25 ng/ml
T1 construct: these cells endogenously express EGFR1 and EGFR2; endogenous in cells; host or cells: HeLa
Description: The EGFR2 peptides are designed to target the human EGFR2 receptor. Thus, for these assays, HeLa cells were initially used, as these cells endogenously express EGFR1 and EGFR2.
For EGFR2, a similar screen was performed as for VEGFR2. Instead of using the time-consuming Western Blot method, however, an ELISA protocol was used that can detect both phospho- and total ERK1/2.

β-Gal [1] = target: T2, β-Gal (Escherichia coli, UniProt P00722); details: 1 μM peptide; immobilized β-Gal
Description: In this in vitro experiment the affinity of different interferor peptides was measured for binding to β-gal by means of surface plasmon resonance (SPR). SPR experiments were performed at 25° C. using a Biacore T100 equipped with CM5 sensor chip (GE Healthcare.). Coupling reagents (N-ethyl-N′-(3-dimethylaminopropyl)carbodiimide (EDC), N-hydroxysuccinimide (NHS) and ethanolamine-HCI) were purchased from GE Healthcare. BSA and β-gal were purchased from Sigma-Aldrich and Roche Diagnostics, respectively. […] The proteins BSA and β-Gal were immobilized respectively, in the reference and sample channels on a CM5 sensor chip by standard amine coupling chemistry at a flow of 10 μl min^−1. The carboxymethyl dextran surface was activated by the injection of a 1:1 ratio of EDC and NHS for 7 minutes. The proteins were diluted in 10 mM sodium-acetate buffer, pH 4.5 to a final concentration of 0.2 mg m1^−1 and injected in short pulses over the activated surface until the immobilization levels reached 4000 RU or 8000 RU, for BSA and β-Gal, respectively. The remaining reactive groups were blocked with 1 M ethanolamine, pH 8. After completion of coupling, the surface was regenerated with short pulses of 50 mM NaOH and 8 M urea to remove non-covalently attached proteins. […] The peptides, dissolved in the running buffer (10 mM sodium phosphate, pH 6.8, 150 mM NaCI, 3 mM EDTA and 0.015% Tween 20) at a concentration of 1 μM, were injected for 60 s at a flow rate of 30 μl min^−1 and then allowed to dissociate for 600 s. The injection was repeated on the same surface as well as on independently immobilized surfaces. The surface was regenerated between each cycle by 30 s pulses of i) 50 mM NaOH, and ii) 8 M urea, and was allowed to stabilize for 400 s before the next cycle.
The peptide dissolved in the running buffer was injected for 60 s at a flow-rate of 301.11min′ over the reference (BSA) and sample (β-Gal) surfaces in a range of concentrations (0-4 μM, with one internal replicate) and were then allowed to dissociate for 600 s. The concentration series were repeated on the same surface (three times) as well as on independently immobilized surfaces. The surface was regenerated between each cycle by 30 s pulses of i) 50 mM NaOH, and ii) 8 M urea, and was allowed to stabilize for 400 s before the next cycle.
The data were globally fitted to a three-state model, using the Biacore T100 software, assuming an initial encounter between the peptide in solution and the protein on the chip followed by a two-step rearrangement before an identical binding site becomes available at the growing β-sheet.

β-Gal [2] = target: T2, β-Gal; details: 10 μM peptide and 10 μM β-Gal; 20 mM sodium phosphate buffer, pH 6.8
Description: The co-aggregation of Tango 1 peptide, Tango 2 peptide and a tandem repeat of Tango 2 peptide with 13-Gal in vitro were monitored via light scattering from the apparent change in the optical density (OD) at 340 nm due to growth of aggregate particulates at room temperature. The interferor-β-Gal co-aggregation was initiated by adding equimolar molar concentration (10 μM) of either Tango 1 peptide, either Tango 2 peptide, either tandem repeat of Tango 2 peptide and β-Gal in 20 mM sodium phosphate buffer, pH 6.8 followed by gently stirring the sample at 50 rpm.
To characterise the size of the aggregates the hydrodynamic radius (RH) of β-Gal at time zero and after co-incubation with the either Tango 1 peptide, either Tango 2 peptide, either tandem repeat of Tango 2 peptide (Table 14) for 2 h was measured using dynamic light scattering (DLS), DynaPro DLS (Wyatt Technology Europe, Germany).

PSA = target: T3, PSA (Homo sapiens, UniProt P07288); experiment: PepBlot detection of PSA in human seminal plasma; assay type: binding; details: 10% seminal plasma; for detection of PSA compared with monoclonal antibody: 250 nM peptide
T3 construct: A sample of 10% seminal plasma was fractionated under non-reducing condition using denaturing gel electrophoresis; from tissue; host or cells: human seminal plasma
Description: Semen from a volunteer was collected and allowed to liquefy at room temperature. After 2 h the seminal fluid was centrifuged at 10,000×g for 15 min to separate the plasma from sperm cells. A sample of 10% seminal plasma was fractionated under non-reducing condition using denaturing gel electrophoresis then transferred to PVDF membrane and blocked using protocol described for serum electrophoresis. Lanes of membrane were agitated separately with 250 nM of peptide b^˜[…] (SEQ ID NO: 88) or peptide b^˜[…] (SEQ ID NO: 85) or 250 pM tandem repeat peptide b^˜[…] (SEQ ID NO: 89) formulated in 10 mM MES buffer pH 5.1, 100 mM trehalose, 0.05% Tween 20 and 2.5% DMSO at 25° C. for 1 h. The membranes were rinsed in 10 mM MES buffer pH 5.1, 0.05% tween 20 and stained with HRP-conjugated SRP and visualized with ECL system. In parallel WB detection of PSA in seminal plasma was carried out by incubating the membrane with (1:5000) rabbit monoclonal anti-PSA antibody (EP1588Yi Abcam) specific to the c-terminal peptide of PSA. This was followed by staining with goat polyclonal anti-rabbit antibody conjugated to HRP and visualised using ECL system.

PR8 virus = assay type: cell-based, influenza A virus (H1N1 strain)
S. aureus [3] = assay type: cell-based, Staphylococcus aureus; details: S. aureus clinical strain MRSA 204; passaged at half the MIC over 15 days
human erythrocytes = assay type: cell-based
Text: The detergent Tween was used as a positive control, causing 100% lysis of RBCs.

S. aureus [4] = test system: S. aureus
Description: (§1) Bacteria were grown in a shaking incubator at 37° C. and 160rpm in 50 ml BHI , using individual colonies retrieved from a fresh overnight TSA-sheep blood plate. The cultures were grown to a density of approximately 1×10^8cells/ml and then diluted to 5×10^5 cells/ml in CAMHB (Mc Farland 0.5). Each well contained 100p.I (50p.I of peptide containing MHB plus 50 μl inoculum). The final cell density was 1×10^5 to 5×10^5/ml. After addition of the cell suspension, plates were incubated at 37° C. for 18 to 24 hours. The optical density at 590 nm (OD590) of each well was measured after 5 seconds of shaking the plate using Perkin Elmer spectrophotometer (1420 Multilabel Counter Vicotr 3). […] Each well, where no growth was observed, was also plated on TSA-sheep blood agar plates, incubated at 37° C. overnight and visually inspected.
(§2) A microbroth dilution method was used with twofold serial dilutions in CAMHB (according to EMEA guidelines) was used for screening of peptide activity, with concentrations ranging from 0.3 μg/mIto 200 μg/ml.

[5] = test system: Human embryonic kidney (HEK293T) cells; details: 50 μg/ml (C30: 50 μg/ml or beyond)
[6] = test system: human embryonic kidney cells (HEK293T cell line); details: 100 μg/ml; 24 hours incubation
Description: Alamar blue assay allowed monitoring of the total percentage of cell growth recovery in time in the presence of peptides.

EGFR family = experiment: EGF-induced ERK1/2 phosphorylation in HeLa cells (cross reactivity of VEGFR2 peptides); assay type: cell-based, human; details: EGF 25 ng/ml
Description: As a next step, to test the specificity of the VEGFR2 peptides, we tested their cross reactivity towards the EGFR family. Therefore, HeLa cells were treated with peptide B8 and B12 and subsequently stimulated with EGF (25ng/ml).

S. aureus MRSA 326 = experiment: Neutropenic-mouse thigh model; details: neutropenic mice; bolus i.v. dose of 15 mg/kg 2 h after inoculation; sacrificed 4 hours post-infection

T3 sequence (P07288 25-261): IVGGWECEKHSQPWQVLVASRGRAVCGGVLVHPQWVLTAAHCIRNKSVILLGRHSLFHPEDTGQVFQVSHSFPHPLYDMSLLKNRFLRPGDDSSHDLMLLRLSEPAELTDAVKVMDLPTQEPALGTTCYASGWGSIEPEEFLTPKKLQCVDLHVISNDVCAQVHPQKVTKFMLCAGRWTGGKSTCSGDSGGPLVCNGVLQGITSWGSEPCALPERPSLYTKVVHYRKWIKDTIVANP
T2 sequence (P00722 2-1024 with the stated changes limits assumed): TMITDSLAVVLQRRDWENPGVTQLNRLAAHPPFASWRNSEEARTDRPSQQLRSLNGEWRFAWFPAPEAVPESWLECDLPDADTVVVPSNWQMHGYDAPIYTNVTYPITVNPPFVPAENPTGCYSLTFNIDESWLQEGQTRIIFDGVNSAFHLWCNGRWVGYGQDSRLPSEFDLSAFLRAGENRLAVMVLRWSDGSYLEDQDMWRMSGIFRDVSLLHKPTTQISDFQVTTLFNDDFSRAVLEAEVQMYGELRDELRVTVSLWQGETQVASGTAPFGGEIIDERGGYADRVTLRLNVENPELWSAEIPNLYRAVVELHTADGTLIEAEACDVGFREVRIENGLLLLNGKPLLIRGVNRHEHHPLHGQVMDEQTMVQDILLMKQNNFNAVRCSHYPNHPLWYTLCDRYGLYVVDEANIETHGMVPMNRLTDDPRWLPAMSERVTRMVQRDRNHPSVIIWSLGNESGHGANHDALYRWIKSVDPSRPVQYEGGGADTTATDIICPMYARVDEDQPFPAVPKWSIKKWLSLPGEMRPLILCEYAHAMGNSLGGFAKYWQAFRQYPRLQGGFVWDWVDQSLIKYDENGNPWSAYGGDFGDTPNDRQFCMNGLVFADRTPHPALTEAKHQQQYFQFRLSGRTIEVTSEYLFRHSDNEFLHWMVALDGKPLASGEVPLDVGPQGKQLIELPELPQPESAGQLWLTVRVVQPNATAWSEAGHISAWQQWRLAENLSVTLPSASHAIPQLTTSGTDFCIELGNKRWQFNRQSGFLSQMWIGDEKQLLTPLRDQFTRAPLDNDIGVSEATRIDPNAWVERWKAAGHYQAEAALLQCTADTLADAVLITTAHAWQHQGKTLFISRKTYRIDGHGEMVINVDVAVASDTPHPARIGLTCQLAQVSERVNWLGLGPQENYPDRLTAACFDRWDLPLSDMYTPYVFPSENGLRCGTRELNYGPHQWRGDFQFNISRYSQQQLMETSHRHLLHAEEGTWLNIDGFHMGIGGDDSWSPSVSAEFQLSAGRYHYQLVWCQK
Description for B. cereus: as §1, §2
Description for Corynebacterium: as §1, §2

RTGYLYISRPPRTGYLYISR [A11]
EGF signaling (phospho-ERK1/2) (human EGFR2): significantly and repeatedly reduced EGF signaling

(His)6~RLAVVLQR [Tango 1 peptide]
binding affinity with β-Gal observed in SPR (β-Gal [1]): weak binding affinity
co-aggregation kinetics with free β-Gal in solution (β-Gal [2]): faster co-aggregation kinetics

RWGLLLALRPPRWGLLLALR [A5]
EGF signaling (phospho-ERK1/2) (human EGFR2): significantly and repeatedly reduced EGF signaling

b~RWQVLVASD
detection of PSA compared with monoclonal antibody (PSA): can detect PSA to comparable levels as the antibody

CC1(C)S[C@@H]2[C@H](NC(=O)[C@H](N)c3ccccc3)C(=O)N2[C@H]1C(=O)O [Ampicilin, reference compound]
maximal increase of the MIC (MRSA strain 326; 31 days, concentration in medium adjusted to MIC of previous day): up to 7 fold
MIC on the last day of the experiment (MRSA strain 326; day 31): 100 µg/mL

(His)6~RVIIWSLGNRGSGSAPAARVIIWSLGNR [Tandem of Tango 2]
co-aggregation kinetics with free β-Gal in solution (β-Gal [2]): fast co-aggregation kinetics

RIISAVVGRPPRIISAVVGR [A12]
EGF signaling (phospho-ERK1/2) (human EGFR2): significantly and repeatedly reduced EGF signaling

O Z RGVSILNLRGSRGVSILNLR [interferor 4]
virus replication (PR8 virus): still reproducibly inhibit virus replication

CCOC(=O)C1=C[C@@H](OC(CC)CC)[C@H](NC(C)=O)[C@@H](N)C1 [Tamiflu, reference compound]
virus replication (PR8 virus; positive control, 1 μM or 10 nM): did not completely inhibit viral replication in one setup

CO[C@H]1/C=C/O[C@@]2(C)Oc3c(C)c(O)c4c(O)c(c(/C=N/N5CCN(C)CC5)c(O)c4c3C2=O)NC(=O)/C(C)=C\C=C\[C@H](C)[C@H](O)[C@@H](C)[C@@H](O)[C@@H](C)[C@H](OC(C)=O)[C@@H]1C [rifampin, reference compound]
fold elevation of the MIC (S. aureus [3]): ≤ 512 fold

O Z RLIQLIVSRGSRLIQLIVSR [interferor 1]
virus replication (PR8 virus): still reproducibly inhibit virus replication

b~RQWVLTAARGSGSAPAARQWVLTAAR ({Biotin-Ttds}-APAARQWVLTAARGSGSAPAARQWVLTAAR) [tandem repeat PSA peptide]
detection of PSA (band signal) (PSA; 250 pM tandem repeat peptide): strong band signal

RFFIALSRRGSRVQAYLYRR [Hit50]
hemolytic activity (human erythrocytes): no significant hemolytic activity at clinically relevant concentrations
MIC (S. aureus [4]): 25 µg/mL
MIC in presence of 50% FBS (S. aureus [4]): 100 µg/mL
MIC values against MRSA 326 (S. aureus [4]): 50 µg/mL
MIC values against B.cereus ATCC (B. cereus): >100 µg/mL
MIC values against Corynebacterium (Corynebacterium): 12.5 µg/mL
LDH release [5]: 5%
recovery of HEK cells [6]: 90%

O Z RTMAWTVVRGSRTMAWIVVR (RTMAWTVVRGSRTMAWTVVR) [interferor 3]
virus replication (PR8 virus): less strong

b~RQWVLTAAR [PSA interferor peptide]
detection of PSA compared with monoclonal antibody (PSA): can detect PSA to comparable levels as the antibody

DMISYAGMDPPDMISYAGMD [B12, VEGFR2 peptide B12]
ERK1/2 phosphorylation after EGF stimulation (EGFR family): do not inhibit ERK1/2 phosphorylation

CN[C@H](CC(C)C)C(=O)N[C@H]1C(=O)N[C@@H](CC(N)=O)C(=O)N[C@H]2C(=O)N[C@H]3C(=O)N[C@H](C(=O)N[C@H](C(=O)O)c4cc(O)cc(O)c4-c4cc3ccc4O)[C@H](O)c3ccc(c(Cl)c3)Oc3cc2cc(c3O[C@@H]2O[C@H](CO)[C@@H](O)[C@H](O)[C@H]2O[C@H]2C[C@](C)(N)[C@H](O)[C@H](C)O2)Oc2ccc(cc2Cl)[C@H]1O [vancomycin, reference compound]
fold elevation of the MIC (S. aureus [3]): increased two-fold
reduction of expansion of initial inoculum (S. aureus MRSA 326): 8.7 Log10 CFU/ml

From patent US20220033448A1, “METHODS FOR AGGREGATION OF PROTEINS” (priority 2011, published 2022)
